Reference: article PMC4812014, “Structural Investigations of N-carbamoylputrescine Amidohydrolase from Medicago truncatula: Insights into the Ultimate Step of Putrescine Biosynthesis in Plants” (Frontiers in Plant Science, 2016)

How the values were obtained:
[1] = molecular target: T1, MtCPA (Medicago truncatula, UniProt G7ITU5); experiment: X-ray crystallography of complex, […] Å; assay type: binding; details: cocrystallized with 17 mM cadaverine, pH 7.0; active site, non-covalent
T1 construct: gene MTR_2g086600; recombinant in E. coli BL21 Gold (pMCSG68); His6 tag cut by TEV, N-terminal Ser-Asn-Ala linker remains; homooctamer, active site fenced by dimer mate

[2] = molecular target: MtCPA-C158S mutant (Medicago truncatula); experiment: crystal structure; hanging drop, 20% PEG3350, 8% Tacsimate pH 7.0 (with or without 10% glycerol); space group P2(1)2(1)2, two octamers in the asymmetric unit; data at 100 K
[3] = molecular target: N-carbamoylputrescine amidohydrolase from Medicago truncatula (MtCPA), wild type (Medicago truncatula); experiment: as above
[4] = molecular target: T1, MtCPA; experiment: X-ray crystallography of complex, […] Å; assay type: binding; details: covalent; bound to Cys158 in active site; formed in crystal from 10 mM putrescine (probably with CO2), pH 7.0
[5] = molecular target: T2, MtCPA (Medicago truncatula, UniProt G7ITU5, C158S); experiment: X-ray crystallography of complex, […] Å; assay type: binding; details: cocrystallized with 10 mM putrescine, pH 7.0; active site, non-covalent
T2 construct: gene MTR_2g086600; recombinant in E. coli BL21 Gold (pMCSG68); His6 tag cut by TEV, N-terminal Ser-Asn-Ala linker remains; homooctamer, active site fenced by dimer mate
T2 sequence (G7ITU5 1-301 C158S): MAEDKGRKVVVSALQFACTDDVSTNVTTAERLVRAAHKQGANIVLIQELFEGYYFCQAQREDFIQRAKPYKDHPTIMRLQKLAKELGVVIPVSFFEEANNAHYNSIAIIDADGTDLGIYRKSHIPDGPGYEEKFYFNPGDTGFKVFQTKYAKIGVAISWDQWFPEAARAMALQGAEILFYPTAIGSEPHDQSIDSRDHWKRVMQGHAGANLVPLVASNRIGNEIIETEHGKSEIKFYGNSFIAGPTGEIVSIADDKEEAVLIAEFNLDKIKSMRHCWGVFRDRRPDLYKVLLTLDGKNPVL

T1 sequence (G7ITU5 entry or part of it): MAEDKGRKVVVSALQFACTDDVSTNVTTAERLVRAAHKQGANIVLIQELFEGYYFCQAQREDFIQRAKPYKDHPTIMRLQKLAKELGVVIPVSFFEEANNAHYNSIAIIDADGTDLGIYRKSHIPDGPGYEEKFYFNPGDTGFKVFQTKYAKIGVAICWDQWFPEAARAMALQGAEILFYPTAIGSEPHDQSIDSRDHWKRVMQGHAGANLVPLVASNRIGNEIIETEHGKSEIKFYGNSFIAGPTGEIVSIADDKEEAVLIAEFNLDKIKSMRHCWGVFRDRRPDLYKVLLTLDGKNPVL

With `NCCCCCN` [CAD, 1,5-diaminopentane] the “X-ray crystallography of complex, 2.19 Å” value [1] was “we do indeed observe CAD in the active site”.

With MtCPA-C158S mutant (enzyme) the stoichiometry N [2] was 8.

For “N-carbamoylputrescine amidohydrolase from Medicago truncatula (MtCPA), wild type (enzyme)”, the stoichiometry N [3] was 8.

With `NCCCCNC(O)O` [DHMP, N-(dihydroxymethyl)putrescine] the “X-ray crystallography of complex, 1.97 Å” value [4] was “DHMP was covalently bound to the catalytic Cys158”.

With `NCCCCN` [PUT, 1,4-diaminobutane] the “X-ray crystallography of complex, 2.29 Å” value [5] was “MtCPA-C158S mutant cocrystallized with PUT clearly shows the ligand without any modifications”.
